# Assay results published in PMC8889123 (International journal for parasitology, 2019).
# Molecular target: T1, Ser/Thr protein phosphatase 5 (PbPP5) (Plasmodium berghei, UniProt A0A509AMH5)
# T1 sequence (A0A509AMH5 407-711): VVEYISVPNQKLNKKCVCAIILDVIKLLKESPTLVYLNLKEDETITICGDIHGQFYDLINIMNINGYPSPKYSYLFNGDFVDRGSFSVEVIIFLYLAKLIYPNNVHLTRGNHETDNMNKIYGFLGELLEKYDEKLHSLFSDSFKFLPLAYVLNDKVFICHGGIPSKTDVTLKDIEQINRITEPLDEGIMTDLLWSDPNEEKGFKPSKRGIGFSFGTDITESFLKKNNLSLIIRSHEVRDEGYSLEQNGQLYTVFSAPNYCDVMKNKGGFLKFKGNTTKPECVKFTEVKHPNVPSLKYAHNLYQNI
# Type: biochemical
row,SMILES,IC50
1,C[C@]1(C(=O)O)[C@@H]2CC[C@@H](O2)[C@@]1(C)C(=O)O [cantharidic acid],122 nM
2,C[C@@]12C(=O)OC(=O)[C@]1(C)[C@H]1CC[C@@H]2O1 [cantharidin],74.3 nM
3,O=C(O)[C@@H]1[C@H](C(=O)O)[C@H]2CC[C@@H]1O2 [endothall],365 nM
4,C=C1[C@@H](O)[C@@H]2O[C@]3(CC[C@H](/C=C/[C@@H](C)[C@@H]4CC(C)=C[C@@]5(O[C@H](C[C@@](C)(O)C(=O)O)CC[C@H]5O)O4)O3)CC[C@H]2O[C@@H]1[C@@H](O)C[C@H](C)[C@H]1O[C@@]2(CCCCO2)CC[C@H]1C [okadaic acid],1.3 nM
